Laboratory results taken from patent US20220304955A1 (Nacuity Pharmaceuticals, Inc., priority 2021, published 2022).
Counter-ions that a name gives are not always drawn. Positions of bridges follow the written chain, without caps; N, C: chain ends. Non-standard residues stand in square brackets, D forms with d. Residues, ends and D or L forms follow the SMILES beside them. *: point of attachment. Ileψ(thiazoline)Cys = CC[C@H](C)[C@H](N)C1=N[C@H](C(=O)*)CS1; dOrn = NCCC[C@@H](N)C(=O)O

Legend:
N27 cells [1] = experiment: Cellular ferroptosis assay, cell viability by MTT; assay type: cell-based, rat; conditions: for preventing ferroptosis, NAC compared with NACA: 50 μM in media or PBS, erastin 0.1-8 μM, RSL3 3-400 nM or glutamate 3-400 mM, 24 hr; for anti-ferroptotic activity on pretreatment prior to ferroptosis induction: 50 or 500 μM in PBS for 24 hours, then erastin, RSL3 or glutamate for additional 24 hours; for prevention of ferroptosis induced by erastin, RSL3 and glutamate (cell viability): erastin 2 μM, RSL3 100 nM or glutamate 100 mM, added at same time, liproxstatin-1 4-250 nM, NAC, NACA (in water), diNACA (in NMP) 8-500 μM; for anti-ferroptotic activity on post-treatment: erastin, RSL3 or glutamate for 5 hours, then 50 or 500 μM in PBS for additional 19 hours
Procedure: Materials and Methods. […] Cells were cultured at 37° C. with 5% CO2.

Caenorhabditis elegans = Caenorhabditis elegans Lifespan assay; assay type: in vivo; conditions: for Median survival: from late L4 larval/young adult stage, 25 °C, strain TJ1060
Procedure: NAC and NACA were dissolved in sterile water then added to the molten NGM at 55° C. Media containing equivalent vehicle alone (1% v/v DMSO) was used for comparison. 1% v/v DMSO was also added to NAC and NACA plates for consistency, as DMSO itself may affect lifespan. Standard overnight culture of the Escherichia coli strain OP50 was used as the food source. Lifespan data were collected at 25 (±1) ° C. using the temperature sensitive-sterile strain TJ1060 [spe-9(hc88); rrf-3(b26)] as a proxy for wildtype. A developmentally synchronous population was obtained by transferring egg-laying adults to fresh plates at 16° C. for 4 hours. The adults were removed and the plates with eggs then transferred to 25° C. to ensure sterility. After 48 hours at 25° C., when worms were at the late L4 larval/young adult stage, 25-35 nematodes were transferred to fresh plates containing either vehicle control (1% v/v DMSO), 1 mM NAC, 10 mM NAC, 1 mM NACA, 10 mM NACA, 1 mM diNACA, and 10 mM diNACA. All plates were coded to allowing blinding of the experimenter to the treatment regime during scoring. Nematodes were scored for survival at 1 to 2-day intervals and transferred to freshly prepared plates as needed (every 2-4 days). Worms lost not due to death were recorded as censored.
Results. Data was analyzed using GraphPad Prism 9, with survival curves compared using a long-rank (Mantel-Cox) test. P values are given for pair-wise comparisons to the vehicle control population.

C. elegans [2] = experiment: Diethyl maleate (DEM) assay, survival of C. elegans; assay type: in vivo, Caenorhabditis elegans; conditions: for % alive: then 10 mM DEM, scored at 24 hours
Procedure: Materials and Methods. Effects of NAC, NACA and diNACA on diethyl maleate (DEM; Sigma-Aldrich)-induced toxicity in C. elegans was evaluated. (10 mM DEM alone conjugates GSH causing 50% depletion of GSH and 50% lethality after 24 hour exposure (Jenkins et al., 2020)). DEM was added to neat DMSO and added to molten NGM at 55° C. to a final concentration of 10 mM DEM and 0.5% v/v DMSO. Plates were seeded with E. coli strain OP50. Data were collected at 25 (±1) ° C. using the temperature sensitive-sterile strain TJ1060. A synchronous population was obtained by transferring egg-laying adults to fresh plates at 16° C. for 2-3 hours. The adults were removed and the plates with eggs then transferred to 25° C. to ensure sterility. After 48 hours at 25° C., when worms were at the late L4/young adult stage, 70 nematodes were transferred to fresh plates containing either vehicle control, 1 mM NAC, 10 mM NAC, 1 mM NACA, 10 mM NACA, 1 mM diNACA, 10 mM diNACA (all with 1.0% v/v DMSO). Worms were aged at 25° C. for a further 4 days and then transferred to DEM plates, 35-45 per plate, two plates per treatment. Survival, determined by touch-provoked movement, was scored at 24 hours after exposure to DEM.

C. elegans [3] = conditions: 10 mM DEM alone, 24 hour exposure; cited from earlier work
N27 cells [4] = conditions: for solvent concentration over which cell viability is reduced: rat, 24 h
Procedure: Viability of cells treated with water, dimethyl sulfoxide (DMSO) or NMP (0.3-20% v/v) for 24 hours. Data are means±SEM, n=3.
Materials and Methods. […] N27 cells, derived from E12 rat mesencephalic tissue (Merck, Australia), were cultured in RPMI 1640 media (ThermoFisher Scientific) supplemented with 10% fetal calf serum (Bovogen, Australia) and penicillin and streptomycin (ThermoFisher Scientific, Australia). Cells were cultured at 37° C. with 5% CO2. Cellular ferroptosis assays were used to evaluate anti-ferroptotic activity of test articles (Southon et al., 2019). Liproxstatin-1 (lip1) was used as an anti-ferroptotic control. […] Cell viability was measured by 3-[4,5-dimethylthiazol-2-yl]-2,5-diphenyltetrazolium bromide (MTT) assay, absorbance measured at 570 nm using a PowerWave XS microplate spectrophotometer (BioTek Instruments, Winooski, USA), and expressed as a percentage of control cells (Southon et al., 2019).
The toxicity profile of solvents NMP, DMSO and water were evaluated in N27 cells (FIG. 2).

C. elegans [5] = conditions: Drug Age Database listing; cited from earlier work
[6] = humans, oral dose of 600 mg; cited from earlier work
[7] = Bioavailability after oral administration in rat (plasma levels); assay type: in vivo
Procedure: Materials and Methods. Bioavailability of diNACA after oral administration in rat was evaluated. NACA and diNACA, separately, were suspended in phosphate-buffered saline (pH 7) and dosed to rats by oral gavage. Blood specimens were collected and processed to produce plasma. Plasma specimens were analyzed for NAC, NACA and diNACA concentration.
The thiol moiety of NAC, NACA, or diNACA and their respective internal standards oxidizes quickly in plasma through formation of disulfides. In order to determine total NAC and total NACA levels in plasma, tris(2-carboxyethyl)phosphine (TCEP) is added during the extraction to reduce disulfide bonds. Ammonium bicarbonate is added to control sample pH near neutral, as TCEP will otherwise acidify the aliquoted samples and hinder derivatization. The free analyte is then derivatized to a stable thioether using 2-chloro-1-methylpyridinium iodide (CMPI). […]
Thioether derivatives of NAC and NACA for LCMS analyses. Samples were analyzed on a Waters Acquity liquid chromatograph interfaced with a Thermo Scientific TSQ Vantage triple quadrupole mass spectrometer with ESI ionization. […]

[8] = Solubility of diNACA in solvents; assay type: physicochemical

Structure (SMILES): CC(=O)N[C@@H](CS)C(N)=O
- preventing ferroptosis, NAC compared with NACA (N27 cells [1]): similarly effective at preventing ferroptosis
- anti-ferroptotic activity on pretreatment prior to ferroptosis induction (N27 cells [1]): did not differentiate anti-ferroptotic activity
- prevention of ferroptosis induced by erastin, RSL3 and glutamate (cell viability) (N27 cells [1]; 24 hours): efficacy in the micromolar range
- anti-ferroptotic activity on post-treatment (N27 cells [1]): did not differentiate anti-ferroptotic activity
- increase in lifespan (Caenorhabditis elegans; 1 mM): minor increase
- Median survival (Caenorhabditis elegans; 1 mM in NGM): 10 days
- increase in lifespan (Caenorhabditis elegans; 10 mM): marked increase in lifespan
- Median survival (Caenorhabditis elegans; 10 mM in NGM): 16 days
- rescue from DEM-induced toxicity (C. elegans [2]; 1 mM): rescue
- % alive (C. elegans [2]; 1 mM pre-treatment 4 days): 91%
- rescue from DEM-induced toxicity (C. elegans [2]; 10 mM): rescue
- % alive (C. elegans [2]; 10 mM pre-treatment 4 days): 98%

Structure (SMILES): CCOC(=O)/C=C\C(=O)OCC [DEM, diethyl maleate]
- depletion of GSH (C. elegans [3]): 50%
- lethality (C. elegans [3]): 50%

Structure (SMILES): C[S+](C)[O-] [DMSO, dimethyl sulfoxide]
- solvent concentration over which cell viability is reduced (N27 cells [4]): over 1.3%

Structure (SMILES): Clc1cccc(CN=C2Nc3ccccc3NC23CCNCC3)c1 [Lip1, Liproxstatin-1, reference compound]
- prevention of ferroptosis induced by erastin, RSL3 and glutamate (cell viability) (N27 cells [1]; 24 hours): nanomolar efficacy

Structure (SMILES): CC(=O)N[C@@H](CS)C(=O)O [NAC, N-acetylcysteine, reference compound]
- preventing ferroptosis, NAC compared with NACA (N27 cells [1]): similarly effective at preventing ferroptosis
- anti-ferroptotic activity on pretreatment prior to ferroptosis induction (N27 cells [1]): did not differentiate anti-ferroptotic activity
- prevention of ferroptosis induced by erastin, RSL3 and glutamate (cell viability) (N27 cells [1]; 24 hours): efficacy in the micromolar range
- anti-ferroptotic activity on post-treatment (N27 cells [1]): did not differentiate anti-ferroptotic activity
- Median survival (Caenorhabditis elegans; 1 mM in NGM): 10 days
- increase in lifespan (Caenorhabditis elegans; 10 mM): minor increase
- Median survival (Caenorhabditis elegans; 10 mM in NGM): 10 days
- % alive (C. elegans [2]; 1 mM pre-treatment 4 days): 80%
- rescue from DEM-induced toxicity (C. elegans [2]; 10 mM): rescue
- % alive (C. elegans [2]; 10 mM pre-treatment 4 days): 89%
- life extension of C. elegans (C. elegans [5]): 64%
- plasma half-life [6]: 2.5 h
- time after administration at which no NAC is detectable [6]: 10 to 12 h

Structure (SMILES): CN1CCCC1=O [NMP, N-methyl pyrrolidone]
- solvent concentration over which cell viability is reduced (N27 cells [4]): over 0.3%

Structure (SMILES): O [Water, water]
- effect of solvent on cell viability (N27 cells [4]): did not reduce cell viability

Structure (SMILES): CC(=O)Nc1ccc(O)cc1 [acetaminophen]
- life extension of C. elegans (C. elegans [5]): 66%

Structure (SMILES): CC[C@H](C)[C@H](N)C1=N[C@H](C(=O)N[C@@H](CC(C)C)C(=O)N[C@H](CCC(=O)O)C(=O)N[C@H](C(=O)N[C@H]2CCCCNC(=O)[C@H](CC(N)=O)NC(=O)[C@@H](CC(=O)O)NC(=O)[C@H](Cc3cnc[nH]3)NC(=O)[C@@H](Cc3ccccc3)NC(=O)[C@H]([C@@H](C)CC)NC(=O)[C@@H](CCCN)NC2=O)[C@@H](C)CC)CS1 [bacitracin] ({Ileψ(thiazoline)Cys}-L[dE]IK[dOrn]I[dF]H[dD]N; lactam 4-C)
- life extension of C. elegans (C. elegans [5]): 74%

Structure (SMILES): CC(=O)N[C@@H](CSSC[C@H](NC(C)=O)C(N)=O)C(N)=O [diNACA, (2R,2R′)-3,3′-disulfanediyl bis(2-acetamidopropanamide)]
- anti-ferroptotic activity on pretreatment prior to ferroptosis induction (N27 cells [1]): did not differentiate anti-ferroptotic activity
- concentration at which a small effect on RSL3 toxicity is seen (N27 cells [1]; diNACA solubilized in media (2-75 mM), RSL3 100 nM, 24 hours): 75 mM
- concentration partially preventing erastin and glutamate-induced toxicity (N27 cells [1]; diNACA solubilized in media (2-75 mM), erastin 2 μM or glutamate 100 mM, 24 hours): ≥ 5 mM
- prevention of ferroptosis induced by erastin, RSL3 and glutamate (cell viability) (N27 cells [1]; 24 hours): did not prevent ferroptosis
- anti-ferroptotic activity on post-treatment (N27 cells [1]): did not differentiate anti-ferroptotic activity
- increase in lifespan (Caenorhabditis elegans; 1 mM): marked increase in lifespan
- Median survival (Caenorhabditis elegans; 1 mM in NGM): 18 days
- increase in lifespan (Caenorhabditis elegans; 10 mM): marked increase in lifespan
- Median survival (Caenorhabditis elegans; 10 mM in NGM): 18 days
- lifespan of C. elegans relative to control (Caenorhabditis elegans; FIG. 8): more than doubled the lifespan
- percentage lifespan extension, increase in median lifespan (Caenorhabditis elegans; versus control): 125%
- rescue from DEM-induced toxicity (C. elegans [2]; 1 mM): rescue
- % alive (C. elegans [2]; 1 mM pre-treatment 4 days): 95%
- rescue from DEM-induced toxicity (C. elegans [2]; 10 mM): rescue
- % alive (C. elegans [2]; 10 mM pre-treatment 4 days): 98%
- metabolism, plasma levels of NACA and NAC ([7]; 200 mg/kg oral diNACA compared with oral NACA): metabolized to NACA and NAC to yield greater levels for longer periods of time compared to oral dosing with NACA
- absorption after oral administration ([7]; 200 mg/kg oral gavage, suspension in PBS pH 7): well absorbed
- solubility in water or DMSO ([8]; Nacuity data on file): not soluble in water or DMSO
- solubility in neat DMSO ([8]; suspension, dissolved upon addition to NGM): not fully soluble in DMSO

Structure (SMILES): Cc1ccc2c(c1)sc(-c1ccc(N(C)C)cc1)[n+]2C.[Cl-] [thioflavin T]
- life extension of C. elegans (C. elegans [5]): 78%
